Patent publication US20250206763A1, “ENPP1 INHIBITOR” (SHANGHAI QILU PHARMACEUTICAL RESEARCH AND DEVELOPMENT …, priority 2022, published 2025)

Molecular target: T1, human ENPP1 (Homo sapiens, UniProt P22413)
T1 construct: purchased Biovendor AP-18-081; host or cells: HEK293
T1 sequence (P22413 1-925): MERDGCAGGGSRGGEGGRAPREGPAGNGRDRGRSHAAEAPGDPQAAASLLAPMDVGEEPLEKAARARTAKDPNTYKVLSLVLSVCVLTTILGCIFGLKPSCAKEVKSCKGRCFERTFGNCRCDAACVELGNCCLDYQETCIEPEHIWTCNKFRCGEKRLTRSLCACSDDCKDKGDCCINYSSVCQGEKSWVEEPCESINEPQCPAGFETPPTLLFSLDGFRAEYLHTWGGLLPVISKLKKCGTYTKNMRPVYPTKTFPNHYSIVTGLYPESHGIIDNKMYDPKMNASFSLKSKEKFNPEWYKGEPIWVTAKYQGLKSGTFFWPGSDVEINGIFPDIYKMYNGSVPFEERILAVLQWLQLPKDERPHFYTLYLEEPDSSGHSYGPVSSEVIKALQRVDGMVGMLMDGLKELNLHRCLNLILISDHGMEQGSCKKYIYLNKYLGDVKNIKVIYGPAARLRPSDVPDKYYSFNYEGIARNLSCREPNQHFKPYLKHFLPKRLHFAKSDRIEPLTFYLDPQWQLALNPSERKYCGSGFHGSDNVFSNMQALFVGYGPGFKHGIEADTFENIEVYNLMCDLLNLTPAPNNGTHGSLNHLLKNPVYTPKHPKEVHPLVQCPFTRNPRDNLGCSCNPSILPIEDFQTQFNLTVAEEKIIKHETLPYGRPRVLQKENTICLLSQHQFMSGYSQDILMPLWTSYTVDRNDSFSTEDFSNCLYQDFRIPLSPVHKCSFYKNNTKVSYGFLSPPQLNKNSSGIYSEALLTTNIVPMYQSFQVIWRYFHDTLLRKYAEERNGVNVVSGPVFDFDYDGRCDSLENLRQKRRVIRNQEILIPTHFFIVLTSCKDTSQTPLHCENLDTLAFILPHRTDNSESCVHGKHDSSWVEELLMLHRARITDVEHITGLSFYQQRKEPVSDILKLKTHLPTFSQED
Assay: In vitro enzyme activity assay: human ENPP1 enzymatic assay (cGAMP), AMP-Glo
Assay type: biochemical
Details: substrate cGAMP, AMP-Glo detection
Protocol: AMP-Glo Assay Kit (PROMEGA, V5012), ENPP-1-IN-1 (MCE, HY-129490), white opaque 384-well plate (Perkin Elmer, 6008289), Mammalian (non-canonical) CDN, cyclic[g(2′,5′)pA(3′,5′)p](referred to as cGAMP hereinafter, Invivogen, tlrl-nacga23-5), ENPP1 Protein Human HEK293 (Biovendor, AP-18-081).
• 1) Preparing 1× reaction buffer (Tris buffer), 1× enzyme buffer, and 1× substrate buffer; • 2) diluting the compounds using Echo550 and supplementing with DMSO; • 3) pre-loading 2.5 μL of enzyme solution on a reaction plate (adding 2.5 μL of buffer instead as negative control) and incubating it at room temperature; • 4) adding 2.5 μL of substrate solution to the system and incubating it at room temperature; • 5) adding 5 μL of AMP-Glo solution that has been allowed to cooled down to room temperature, centrifuging and reacting at room temperature, • 6) adding 10 μL of AMP Detection solution at room temperature, centrifuging and reacting at room temperature; and • 7) reading the plate using EnVision.

`CC(c1ccc(P(=O)(O)O)c(F)c1)n1c(=O)[nH]c2cnc3c4c(ccc3c21)OCO4` (stereo not drawn) [Compound 5-P1] and `Cc1cc(P(=O)(O)O)c(F)cc1Cn1c(=O)[nH]c2cnc3c4c(ccc3c21)OCO4` [Compound 14] cannot be ordered by IC50: < 10 nM for the first, < 10 nM for the second.

`O=c1[nH]c2cnc3c4c(ccc3c2n1Cc1c(F)cc(B(O)O)cc1F)OCO4` [Compound 46] and `Cn1c(=O)n(Cc2c(F)cc(B(O)O)cc2F)c2c3ccc4c(c3ncc21)OCO4` [Compound 47] cannot be ordered by IC50: < 10 nM for the first, < 10 nM for the second.

`CS(=N)(=O)c1ccc(Cn2c(=O)[nH]c3cnc4c5c(ccc4c32)OCO5)cc1F` (stereo not drawn) [Compound 42] and `NS(=O)(=O)c1ccc(Cn2c(=O)[nH]c3cnc4c5c(ccc4c32)OCO5)cc1F` [Compound 37] cannot be ordered by IC50: < 10 nM for the first, < 10 nM for the second.

First: C[S@](=N)(=O)c1ccc(Cn2c(=O)[nH]c3cnc4c5c(ccc4c32)OCO5)cc1 (single isomer, unassigned) [Compound 43-P2]
Second: C[S@@](=N)(=O)c1ccc(Cn2c(=O)[nH]c3cnc4c5c(ccc4c32)OCO5)cc1 (single isomer, unassigned) [Compound 43-P1]
The IC50 of the first is lower: < 10 nM for the first, 10 to 50 nM for the second. The first is the more potent here.

`CCn1c(=O)n(Cc2ccc(P(=O)(O)O)c(F)c2)c2c3ccc4c(c3ncc21)OCO4` [Compound 6, (4-((6-ethyl-7-oxo-6,7-dihydro-8H-[1,3]dioxolo[4,5-h]imidazo[4,5-c]quinolin-8-yl)methyl)-2-fluorophenyl)phosphonic acid] and `CC(C)Cn1c(=O)n(Cc2ccc(P(=O)(O)O)c(F)c2)c2c3ccc4c(c3ncc21)OCO4` [Compound 18] cannot be ordered by IC50: < 10 nM for the first, < 10 nM for the second.

`CN(C)CCCn1c(=O)n(Cc2ccc(P(=O)(O)O)c(F)c2)c2c3ccc4c(c3ncc21)OCO4` [Compound 34] and `CN(C)CCn1c(=O)n(Cc2ccc(P(=O)(O)O)c(F)c2)c2c3ccc4c(c3ncc21)OCO4` [Compound 33] cannot be ordered by IC50: < 10 nM for the first, < 10 nM for the second.

`Cn1c(=O)n(Cc2ccc(P(=O)(O)O)c(F)c2)c2c3cn[nH]c3ncc21` [Compound 60] and `Cn1c(=O)n(Cc2ccc(P(=O)(O)O)c(F)c2)c2c3ccc4c(c3ncc21)OCO4` [Compound 3, (2-fluoro-4-((6-methyl-7-oxo-6,7-dihydro-8H-[1,3]dioxolo[4,5-h]imidazo[4,5-c]quinolin-8-yl)methyl)phenyl)phosphonic acid] cannot be ordered by IC50: < 10 nM for the first, < 10 nM for the second.

`CCn1c(=O)n(Cc2ccc(S(C)(=N)=O)cc2)c2c3ccc4c(c3ncc21)OCO4` (stereo not drawn) [Compound 45] and `Cn1c(=O)n(Cc2ccc(S(C)(=N)=O)cc2)c2c3ccc4c(c3ncc21)OCO4` (stereo not drawn) [Compound 44] cannot be ordered by IC50: < 10 nM for the first, < 10 nM for the second.

`O=c1n(Cc2ccc(P(=O)(O)O)c(F)c2)c2c3ccc4c(c3ncc2n1C1CC1)OCO4` [Compound 11] and `O=c1n(Cc2ccc(P(=O)(O)O)c(F)c2)c2c3ccc4c(c3ncc2n1C1CCCC1)OCO4` [Compound 27] cannot be ordered by IC50: < 10 nM for the first, < 10 nM for the second.

`O=c1n(CCCOC2CCOCC2)c2cnc3c4c(ccc3c2n1Cc1ccc(P(=O)(O)O)c(F)c1)OCO4` [Compound 29] and `O=c1n(CCC2CCOCC2)c2cnc3c4c(ccc3c2n1Cc1ccc(P(=O)(O)O)c(F)c1)OCO4` [Compound 25] cannot be ordered by IC50: < 10 nM for the first, < 10 nM for the second.

Compared with `O=c1[nH]c2cnc3c4c(ccc3c2n1Cc1ccc(P(=O)(O)O)c2ccccc12)OCO4` [Compound 8], `O=c1[nH]c2cnc3c4c(ccc3c2n1Cc1ccc(P(=O)(O)O)c(F)c1F)OCO4` [Compound 9] is lower in IC50: 10 to 50 nM for the first, < 10 nM for the second.

`COc1cc(Cn2c(=O)[nH]c3cnc4c5c(ccc4c32)OCO5)ccc1P(=O)(O)O` [Compound 49] and `O=c1[nH]c2cnc3c4c(ccc3c2n1Cc1ccc(P(=O)(O)O)c(Br)c1)OCO4` [Compound 16] cannot be ordered by IC50: < 10 nM for the first, < 10 nM for the second.

`O=c1n(CC2CCC(F)(F)CC2)c2cnc3c4c(ccc3c2n1Cc1ccc(P(=O)(O)O)c(F)c1)OCO4` [Compound 21] and `O=c1n(CC2CCC2)c2cnc3c4c(ccc3c2n1Cc1ccc(P(=O)(O)O)c(F)c1)OCO4` [Compound 19] cannot be ordered by IC50: < 10 nM for the first, < 10 nM for the second.

`O=c1n(CCCN2CCOCC2)c2cnc3c4c(ccc3c2n1Cc1ccc(P(=O)(O)O)c(F)c1)OCO4` [Compound 32] and `CC(C)CCn1c(=O)n(Cc2ccc(P(=O)(O)O)c(F)c2)c2c3ccc4c(c3ncc21)OCO4` [Compound 30] cannot be ordered by IC50: < 10 nM for the first, < 10 nM for the second.

`O=c1n(Cc2ccc(P(=O)(O)O)c(F)c2)c2c3ccc4c(c3ncc2n1-c1ccccc1)OCO4` [Compound 52] and `O=c1n(Cc2ccc(P(=O)(O)O)c(F)c2)c2c3ccc4c(c3ncc2n1C(F)F)OCO4` [Compound 51] cannot be ordered by IC50: < 10 nM for the first, < 10 nM for the second.

`NS(=O)(=O)c1ccc(Cn2c(=O)[nH]c3cnc4c5c(ccc4c32)OCO5)cc1` [Compound 36] and `NS(=O)(=O)c1ccc(Cn2c(=O)[nH]c3cnc4c5c(ccc4c32)OCO5)c(F)c1` [Compound 39] cannot be ordered by IC50: < 10 nM for the first, < 10 nM for the second.

`COc1cc2c(ncc3[nH]c(=O)n(Cc4ccc(P(=O)(O)O)c(F)c4)c32)c2c1OCO2` [Compound 55] and `O=c1[nH]c2cnc3c4c(ccc3c2n1Cc1cc(F)c(P(=O)(O)O)cc1F)OCO4` [Compound 17] cannot be ordered by IC50: < 10 nM for the first, < 10 nM for the second.

`O=c1[nH]c2cnc3c4c(ccc3c2n1Cc1ccc(P(=O)(O)O)c(OCc2ccccc2)c1)OCO4` [Compound 61] and `O=c1[nH]c2cnc3c4c(ccc3c2n1Cc1ccc(P(=O)(O)O)c(Cl)c1)OCO4` [Compound 15] cannot be ordered by IC50: < 10 nM for the first, < 10 nM for the second.

`CCn1c(=O)n(Cc2c(F)cc(S(N)(=O)=O)cc2F)c2c3ccc4c(c3ncc21)OCO4` [Compound 41] and `CN(C)CCn1c(=O)n(Cc2c(F)cc(S(N)(=O)=O)cc2F)c2c3ccc4c(c3ncc21)OCO4` [Compound 53] cannot be ordered by IC50: < 10 nM for the first, < 10 nM for the second.

`CS(=O)(=O)CCn1c(=O)n(Cc2ccc(P(=O)(O)O)c(F)c2)c2c3ccc4c(c3ncc21)OCO4` [Compound 31] and `O=c1n(CCC(F)(F)F)c2cnc3c4c(ccc3c2n1Cc1ccc(P(=O)(O)O)c(F)c1)OCO4` [Compound 24] cannot be ordered by IC50: < 10 nM for the first, < 10 nM for the second.

`O=c1[nH]c2cnc3c4c(ccc3c2n1Cc1c(F)cc(P(=O)(O)O)c(F)c1F)OCO4` [Compound 12] and `O=c1[nH]c2cnc3c4c(ccc3c2n1Cc1cc(F)c(P(=O)(O)O)cc1Cl)OCO4` [Compound 13] cannot be ordered by IC50: < 10 nM for the first, < 10 nM for the second.

`Cc1nc2cnc3c4c(ccc3c2n1Cc1ccc(P(=O)(O)O)c(F)c1)OCO4` [Compound 54, (2-fluoro-4-((7-methyl-8H-[1,3]dioxolo[4,5-h]imidazo[4,4-c]quinolin-8-yl)methyl)phenyl)phosphonic acid] and `CC(C)n1c(=O)n(Cc2ccc(P(=O)(O)O)c(F)c2)c2c3ccc4c(c3ncc21)OCO4` [Compound 10] cannot be ordered by IC50: < 10 nM for the first, < 10 nM for the second.

`NS(=O)(=O)c1ccc(Cn2c(=O)[nH]c3cnc4c5c(ccc4c32)OCO5)c(F)c1F` [Compound 38] and `NS(=O)(=O)c1cc(F)c(Cn2c(=O)[nH]c3cnc4c5c(ccc4c32)OCO5)c(F)c1` [Compound 35] cannot be ordered by IC50: < 10 nM for the first, < 10 nM for the second.

`O=c1n(CC(F)F)c2cnc3c4c(ccc3c2n1Cc1ccc(P(=O)(O)O)c(F)c1)OCO4` [Compound 7] and `CC(C)(C)Cn1c(=O)n(Cc2ccc(P(=O)(O)O)c(F)c2)c2c3ccc4c(c3ncc21)OCO4` [Compound 22] cannot be ordered by IC50: < 10 nM for the first, < 10 nM for the second.

`O=c1n(CC2CCCC2)c2cnc3c4c(ccc3c2n1Cc1ccc(P(=O)(O)O)c(F)c1)OCO4` [Compound 20] and `O=c1n(Cc2ccc(P(=O)(O)O)c(F)c2)c2c3ccc4c(c3ncc2n1C1CCOCC1)OCO4` [Compound 28] cannot be ordered by IC50: < 10 nM for the first, < 10 nM for the second.

`NS(=O)(=O)c1cnc(Cn2c(=O)[nH]c3cnc4c5c(ccc4c32)OCO5)c(F)c1` [Compound 63] and `O=c1[nH]c2cnc3c4c(ccc3c2n1Cc1ccc(P(=O)(O)O)cc1F)OCO4` [Compound 4, (3-fluoro-4-((7-oxo-6,7-dihydro-8H-[1,3]dioxolo[4,5-h]imidazo[4,5-c]quinolin-8-yl)methyl)phenyl)phosphonic acid] cannot be ordered by IC50: < 10 nM for the first, < 10 nM for the second.

`CC(c1ccc(P(=O)(O)O)c(F)c1)n1c(=O)[nH]c2cnc3c4c(ccc3c21)OCO4` (stereo not drawn) [Compound 5-P2] and `O=c1[nH]c2cnc3c4c(ccc3c2n1Cc1ccc(B(O)O)cc1)OCO4` [Compound 48] cannot be ordered by IC50: < 10 nM for the first, < 10 nM for the second.
